How the values were obtained:
HaCaT cells = test system: HaCaT cells
Description: HaCaT cells were obtained from Prof. Fusenig, German Cancer Research Centre, Heidelberg. To gather cells more representative for the upper epidermal layer, we cloned the original cells by endpoint dilution. […] Cytokeratins were detected using anti-cytokeratin clones AE1/AE3 (Boehringer Mannheim, Germany) and anti-cytokeratin 1,10 antibody (Biogenesis Ltd., Poole, UK), respectively. […] Cells were propagated in FAD medium (DMEM/HAM's F12 3:1, Invitrogen); 5% NuSerum IV culture supplement and Miton™ 1:1000 (both Becton Dickinson, Bedford, Mass., USA). On day 0 of the experiment, cells were seeded at 2×10^5 cells per 60 mm dish. Cells were counted using a Coulter Multisizer (IG Instrumenten Gesellschaft, Zurich, Switzerland). […] On days 1 and 2, the media were replaced with fresh β-carotene-containing FAD medium without phenol red; 2% NuSerum; penicillin/streptomycin.
β-Carotene stock solutions and β-carotene-containing media were prepared under reduced light conditions. All-E-β-carotene was synthesized by DSM Nutritional Products (Kaiseraugst, Switzerland). β-carotene was dissolved in tetrahydrofurane (THF containing 0.025% butyl hydroxytoluol; Fluka Chemie A G, Buchs, Switzerland). Immediately before preparing the β-carotene stock solution, THF was purified over a basic aluminum oxide grade 1 (Camag, Muttenz, Switzerland) column. The n-carotene stock solution was prepared fresh for each experiment, and stored under argon at −20° C. until use. To prepare β-carotene-containing medium, the β-carotene stock solution was first diluted 1:1 with ethanol. This β-carotene/solvent mixture was then added to the cell culture medium to give a final concentration of 0.5, 1.5, or 3 μM β-carotene. β-carotene-containing medium was prepared fresh for the daily medium changes. The solvent concentration in the medium was kept constant at 0.5% for all treatment conditions.
All extraction and analytical procedures were carried out in brown glass, and under reduced light conditions. Acetonitrile, tert-butylmethylether, acetone and ethanol p. a. were from E. Merck K G (Darmstadt, Germany). Ammonium acetate p.a., butylated hydroxy toluene p.a., tetrahydrofuran p.a., triethylamine p.a., were from Fluka Chemie A G (Buchs, Switzerland). HPLC grade solvents for stock solutions, dilutions, and sample solvent mixtures were additionally purified over basic aluminum oxide grade 1 (Camag, Muttenz, Switzerland). To determine the β-carotene content of cells, the cell layer was washed 5 times with PBS/2% BSA. The cells were detached by trypsin/EDTA 0.05/0.02% and centrifuged at 10,000×g for 1 minute Cell pellets were lysed with acetone containing 0.025% BHT (v/w), vortex-mixed and dried in a speed-vac. The dried residue was extracted with ethanol/tBME/THF, 9:5:1, containing 0.025% of BHT (v/w) by vigorous vortex-mixing for one minute, and centrifugation for 3 minutes at 10,000×g. An aliquot of the clear supernatant was injected into the HPLC system. Cell culture medium was directly extracted with the solvent mixture described above, and the extract was treated as described for the cell pellets.
The HPLC system consisted of a 520 pump, a 565 autosampler cooled at 6° C., a 540+ diode array detector, a SDU 2003 solvent degasser unit and the Chroma 3000 data analysis system from Bio-Tek Instruments (Basel, Switzerland). A Vydac 218TP54 column (250×4.5 mm i.d., 300 angstrom pore wide) from the Separation Group (Hesperia, USA) was used for separation.

MMP-1 = assay: ELISA of MMP-1 release into cell culture supernatant of HaCaT cells; assay type: cell-based, human
Description: HaCaT cells were supplemented with 0.5, 1.5, or 3 μM β-carotene for 2 days prior to UVA (270 kJ/m^2) irradiation. MMP-1 and TIMP-1 secretion 24 hours after irradiation was analyzed by ELISA. Each condition was represented by three replicates in the experiment. Values are means±standard error.
Release of MMP-1, and TIMP-1 into cell culture supernatant was determined by ELISA at 24 hours after irradiation. MMP-1 and TIMP-1 release was measured using MMP-1 and TIMP ELISA from CALBIOCHEM (San Diego, Calif., USA). The ELISAs were performed according to the manufacturer's instructions.

photosensitization = settings: EPP patients, 180 mg/d; cited from earlier work
non-melanoma skin cancer = settings: clinical intervention trials; cited from earlier work
integrinα6 = assay: QRT-PCR confirmation of gene regulation in HaCaT cells; assay type: cell-based, human; settings: β-carotene, unirradiated cells
Description: (§1) FIGS. 9A-9C show β-carotene-induced inhibition of integrinα6 transcription in irradiated and unirradiated HaCaT cells (FIG. 9A) and enhancement of UVA-induced GADD34 (FIG. 9B) and GADD153 transcription (FIG. 9C). Cells were supplemented with β-carotene for 2 days prior to UVA irradiation (270 kJ/m^2) either in normal PBS or D2O-PBS. Gene expression 5 hours after irradiation was determined by quantitative real time polymerase chain reaction. (“QRT-PCR”). Values are geometric mean±standard error of three experiments.
(§2) Key gene regulation was confirmed in three independent cell irradiation experiments using TaqMan® QRT-PCR as described. In these experiments, cells were pretreated with 0.5, 1.5, or 3 μM β-carotene, to analyze for dose-dependent β-carotene effects. In addition, cells were irradiated either in D2O-containing PBS or in H2O-containing PBS, to analyze for the ^1O2 inducibility of genes.

GADD34 = assay: as above; assay type: cell-based, human; settings: 5 hours after UVA
Description: as §1, §2

GADD153 = assay: as above; assay type: cell-based, human; settings: 5 hours after UVA
Description: as §1, §2

SMILES: CC1=C(/C=C/C(C)=C/C=C/C(C)=C/C=C/C=C(C)/C=C/C=C(C)/C=C/C2=C(C)CCCC2(C)C)C(C)(C)CCC1 [β-carotene, All-E-β-carotene]
- Retinol cellular content (HaCaT cells): <LOD
- Retinyl Palmitate cellular content (HaCaT cells): <LOD
- cellular β-carotene content relative to 72 hours (HaCaT cells): about half
- retinol or retinyl esters formed from β-carotene (HaCaT cells): do not produce detectable amounts
- time of peak cellular β-carotene concentration (HaCaT cells): 72 h
- UVA-induced MMP-1 production, protein level (MMP-1; 24 hours after UVA): Downregulation
- basal MMP-1 protein expression (MMP-1; unirradiated cells): tended to reduce
- symptoms of photosensitization (photosensitization): alleviated the symptoms of photosensitization
- prevention of non-melanoma skin cancer (non-melanoma skin cancer): no significant prevention
- integrinα6 transcription (integrinα6): downregulation
- UVA-induced GADD34 transcription (GADD34): enhancement
- UVA-induced GADD153 transcription (GADD153): enhancement

— US20160304957A1, “TREATMENT AND MODULATION OF GENE EXPRESSION AND SKIN AGING” (DSM NUTRITIONAL PRODUCTS LTD., priority 2006, published 2016)
